# In patent US9907799B2, “Tau aggregation inhibitor” (THE DOSHISHA, priority 2013, dated 2018):
# What was measured:
# Format in all cases: biochemical
# [1] = biological target: T1, human-type tau 0N4R isoform (recombinant tau) (Homo sapiens, UniProt P10636); experiment: tau aggregation inhibition experiment, thioflavin T fluorescence (heparin-induced); settings: 1 μM compound, compared to 1 μM isoproterenol under the same incubation condition
# T1 construct: Fractions including full-length recombinant tau were mixed together; made in house; host or cells: E. coli BL21(DE3)
# Description: First of all, a plasmid expressing human-type tau 0N4R isoform (383 amino acid) was introduced into E. coli BL21(DE3) strain to purify a recombinant tau. The purification was carried out by modifying the method of Taniguchi et al. (see Taniguchi et al., 2008, JBC, 280, 7614). A soluble fraction was prepared based on E. coli in which tau expression had been induced with isopropyl-β-thiogalactopyranoside, and then fractionation was carried out with a phosphocellulose column (e.g., P11 column produced by Whatman). The fraction eluted at an NaCl concentration of 0.1 to 0.3 M was recovered to perform precipitation and concentration using ammonium sulfate. The precipitate thus obtained was dissolved in a buffer containing 0.5 M of NaCl and 2% of 2-mercaptoethanol and then heated to 100° C. for five minutes. Then, the reactant was subjected to a centrifugation at 15,000×g for 15 minutes. The supernatant thus obtained was recovered and then subjected to precipitation and concentration with ammonium sulfate. The precipitate thus obtained was dissolved in a solution containing 20% of acetonitrile and 0.1% of formic acid so as to be purified using reversed phase HPLC (with a Cosmosil protein-R column produced by Nacalai Tesque). Fractions including full-length recombinant tau were mixed together and then the mixture thus obtained was dried with a freeze dryer to obtain a dried and purified recombinant tau sample. The yield and concentration of the tau thus obtained were analyzed by Coomassie Brilliant Blue (CBB) staining after the product was subjected to electrophoresis using 10% polyacrylamide gel.
# The dried and purified recombinant tau sample was dissolved in purified water at a concentration of 0.9 mg/ml. […] Next, their fluorescence value (under excitation light at 360 nm and fluorescent light at 465 nm) was measured with a fluorescent plate reader (infinit F200 produced by TECAN). Thereafter, heparin was added so that the concentration would be 60 μg/ml and then incubation was carried out at 37° C. in a moisture retention box to measure a variation in fluorescence value with time. The incubation was carried out for 168 hours, the fluorescence value was measured, and then the reacted solution was recovered to prepare a sarcosyl insoluble fraction. The sarcosyl insoluble fraction was made to have a final concentration of 1% by adding an aqueous solution of 10% (one-tenth quantity of) sodium N-lauroylsarcosinate to the reacted solution recovered. The solution was subjected to incubation at 4° C. for 30 minutes and then subjected to a centrifugation at 100,000×g for 20 minutes to separate the supernatant and the precipitate from each other. With the supernatant fraction and the precipitate regarded as a soluble tau fraction and a sarcosyl insoluble fraction, respectively, the yield of tau was analyzed by electrophoresis using 10% polyacrylamide gel. Also, part of the reacted solution was fractionated by sucrose density-gradient centrifugation using the method of Maeda et al. (see Maeda et al., 2007, Biochemistry, 46, 3856). After the centrifugation, the reactant was fractioned into 1 to 6 according to density and the tau yield was analyzed by 10% polyacrylamide gel electrophoresis and Western blotting.
# During screening, the concentration of the compound was supposed to be 1 μM and compared to the effect achieved by 1 μM of isoproterenol under the same incubation condition.
# [2] = biological target: T1, human-type tau 0N4R isoform (recombinant tau); experiment: quantity of sarcosyl insoluble tau by electrophoresis after 168 hours incubation; settings: incubation for 168 hours; 0.1-100 μM
# Description: (§1) First of all, a plasmid expressing human-type tau 0N4R isoform (383 amino acid) was introduced into E. coli BL21(DE3) strain to purify a recombinant tau. The purification was carried out by modifying the method of Taniguchi et al. (see Taniguchi et al., 2008, JBC, 280, 7614). A soluble fraction was prepared based on E. coli in which tau expression had been induced with isopropyl-β-thiogalactopyranoside, and then fractionation was carried out with a phosphocellulose column (e.g., P11 column produced by Whatman). The fraction eluted at an NaCl concentration of 0.1 to 0.3 M was recovered to perform precipitation and concentration using ammonium sulfate. […] The yield and concentration of the tau thus obtained were analyzed by Coomassie Brilliant Blue (CBB) staining after the product was subjected to electrophoresis using 10% polyacrylamide gel.
# (§2) The dried and purified recombinant tau sample was dissolved in purified water at a concentration of 0.9 mg/ml. […] Next, their fluorescence value (under excitation light at 360 nm and fluorescent light at 465 nm) was measured with a fluorescent plate reader (infinit F200 produced by TECAN). Thereafter, heparin was added so that the concentration would be 60 μg/ml and then incubation was carried out at 37° C. in a moisture retention box to measure a variation in fluorescence value with time. […]
# [3] = biological target: T1, human-type tau 0N4R isoform (recombinant tau); experiment: sucrose density-gradient centrifugation fractionation of polymerized tau, electrophoresis and Western blotting; settings: 10 μM
# Description: as §1, §2
# T1 sequence (P10636 1-383 isoform P10636-6): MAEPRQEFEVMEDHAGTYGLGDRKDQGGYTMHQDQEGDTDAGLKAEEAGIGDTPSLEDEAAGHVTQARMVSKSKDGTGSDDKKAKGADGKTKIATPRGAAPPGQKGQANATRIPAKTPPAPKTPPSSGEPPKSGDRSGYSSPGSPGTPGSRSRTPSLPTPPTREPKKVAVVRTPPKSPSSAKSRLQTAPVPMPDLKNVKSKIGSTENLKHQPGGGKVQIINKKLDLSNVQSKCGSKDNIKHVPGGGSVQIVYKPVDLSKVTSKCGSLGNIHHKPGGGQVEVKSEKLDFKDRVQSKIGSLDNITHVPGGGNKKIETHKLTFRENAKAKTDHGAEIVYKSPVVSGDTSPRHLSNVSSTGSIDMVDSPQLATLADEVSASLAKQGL
Compound,tau polymerization inhibitory activity (thioflavin T activity) [1],other results
"Oc1ccc(C(O)CN2CCOCC2)cc1O (stereo not shown) [1-(3,4-dihydroxyphenyl)-2-morpholinoethanol]",somewhat higher tau polymerization inhibitory activity than isoproterenol and catechol,
"O=Cc1cccc(O)c1O [2,3-dihydroxybenzaldehyde]",also exhibited as high tau polymerization inhibitory activity,
"COc1ccc(CCN)cc1OC [2-(3,4-dimethoxy)ethylamine]","nor 2-(3,4-dimethoxy)ethylamine (indicated by 3,4-DMPT and represented by the following Chemical Formula (10)) exhibited any tau polymerization inhibitory activity",
Cn1ccnc1C(O)CN (stereo not shown) [2-amino-1-(1-methyl-1H-imidazol-2-yl)ethanol],none of these compounds exhibited the tau polymerization inhibitory activity,
"NCC(O)c1ccc(Cl)c(Cl)c1 (stereo not shown) [2-amino-1-(3,4-dichlorophenyl)ethanol]",No tau polymerization inhibitory activities,
NCC(O)c1ccco1 (stereo not shown) [2-amino-1-(furan-2-yl)ethanol],none of these compounds exhibited the tau polymerization inhibitory activity,
NCC(O)c1cccnc1 (stereo not shown) [2-amino-1-(pyridine-3-yl)ethanol],none of these compounds exhibited the tau polymerization inhibitory activity,
NCC(O)c1ccccc1 (stereo not shown) [2-amino-1-phenylethanol],No tau polymerization inhibitory activities,
"CC(=O)c1ccc(O)c(O)c1 [3,4-dihydroxyacetophenone]",as high tau polymerization inhibitory activity as isoproterenol and catechol,
"O=Cc1ccc(O)c(O)c1 [3,4-dihydroxybenzaldehyde]",exhibited no tau polymerization inhibitory activity,
"NCc1ccc(O)c(O)c1 [3,4-dihydroxybenzylamine]",as high tau polymerization inhibitory activity as isoproterenol and catechol,
Nc1cccc(O)c1O [3-aminocatechol],inhibited the tau polymerization as strongly as 4-aminocatechol did,
COc1cccc(O)c1O [3-methoxycatechol],also exhibited as high tau polymerization inhibitory activity,
NCCCC(=O)Nc1ccc(O)c(O)c1 [4-(4-aminobutanoylamino) catechol],decreased significantly to almost the same level as isoproterenol's,
CC(C)CCN(CCC(C)C)c1ccc(O)c(O)c1 [4-(diisopentylamino) catechol],decreased significantly to almost the same level as isoproterenol's,
CC(C)CCNc1ccc(O)c(O)c1 [4-(isopentylamino) catechol],intense tau polymerization inhibitory activity did not change,
O=C(Nc1ccc(O)c(O)c1)N1CCOCC1 [4-(morpholinocarbonylamino) catechol],intense tau polymerization inhibitory activity slightly decreased,
O=C(CCl)c1ccc(O)c(O)c1 [4-chloroacetylcatechol],somewhat higher tau polymerization inhibitory activity than isoproterenol and catechol,
Oc1ccc(Cl)cc1O [4-chlorocatechol],as high tau polymerization inhibitory activity as isoproterenol and catechol,
COc1ccc(O)c(O)c1 [4-methoxycatechol],"did not affect 1,2,4-benzenetriol's intense tau polymerization inhibitory activity",
CC(C)(C)c1ccc(O)c(O)c1 [4-tert-butylcatechol],as high tau polymerization inhibitory activity as isoproterenol and catechol,
COc1ccc(CCN)cc1OC [homoveratylamine],"Neither homoveratylamine (indicated by HV and represented by the following Chemical Formula (9)) nor 2-(3,4-dimethoxy)ethylamine (indicated by 3,4-DMPT and represented by the following Chemical Formula (10)) exhibited any tau polymerization inhibitory activity",
CC(C)NCC(O)c1ccc(O)c(O)c1 (stereo not shown) [isoproterenol],,"inhibition of tau polymerization (sarcosyl insoluble tau), concentration dependence [2]: inhibited the tau polymerization depending on the concentration; quantity of the tau recovered in Fraction 3 (oligomer tau) [3]: also seen to decrease; quantity of the tau recovered in Fractions 4 and 5 (fibrosed tau) [3]: seen to decrease significantly"
